In patent EP4332093A1, “SALT CONTAINING PIPERAZINE POLYCYCLIC DERIVATIVE, CRYSTAL FORM THEREOF, PREPARATION METHOD THEREFOR, AND USE THEREOF” (Shanghai Hansoh Biomedical Co., Ltd., priority 2021, dated 2022):
In brackets after ≈: the same amount, converted by molar mass. Like-named read-outs stand apart in the source and are kept apart here.

What was measured:
D3 receptor = molecular target: T1, D3 receptor (Homo sapiens, UniProt P35462); experiment: cAMP content in cells stably expressing D3 receptors (CHO-D3, forskolin, HTRF); format: cell-based
T1 construct: expressed in transfected cells
Experimental: Determination of the effect of the compounds of the present invention on cAMP content in cells stably expressing D3 receptors
To determine the activation effect of the compounds on D3 receptor.
• 1. Preparation of the buffer: 1* HBSS + 20mM HEPES + 0.1% BSA + 500 µM IBMX. Complete medium: Ham's F12K + 10% fetal bovine serum +1* penicillin-streptomycin + 400 µg/mL G418. • 2. CHO-D3 cells were cultured in the complete medium at 37°C, 5% CO2. After TrypLE digestion, the cells were resuspended in the experimental buffer, and seeded into a 384-well cell culture plate at a seeding density of 8000 cells per well. • 3. The experimental buffer (1*HBSS, 0.1% BSA, 20 mM HEPES and 500 µM IBMX) was prepared. The compound was diluted with the buffer. 2.5 µL of the compound solution was added to each well, and the plate was incubated at 37°C for 10 minutes. The forskolin was diluted to 8 µM (8*) with the experimental buffer. 2.5 µL of the diluted 8* forskolin was added, and the plate was incubated at 37°C for 30 minutes. cAMP-d2 and Anti-cAMP-Eu^3+ were thawed, and diluted by 20-fold with the lysis buffer. 10 µL of cAMP-d2 was added to the experimental well, followed by the addition of 10 µL of Anti-cAMP-Eu^3+. The reaction plate was centrifuged at 200 g for 30 s at room temperature, and left to stand at 25°C for 1 h. Data was collected using Envision.

5-HT2A receptor = 5-HT2A receptor (Homo sapiens, UniProt P28223); experiment: Calcium ion mobility in cells stably expressing 5-HT2A receptors (Flp-In-CHO-5HT2A, FLIPR); format: cell-based; design: expressed in transfected cells; conditions: Flp-In-CHO-5HT2A stable pool, 5HT stimulation
Experimental: Determination of the effect of the compounds of the present invention on calcium ion mobility in cells stably expressing 5-HT2A receptors
To determine the inhibitory effect of the compounds on 5-HT2A receptor.
• 1) Preparation of the buffer: 1 x HBSS, 20 mM HEPES, 2.5 mM probenecid (probenecid was 400 mM stock in 1 M NaOH), 0.1% BSA. Probenecid and BSA were added fresh on the day of the experiment. Experimental buffers include dye buffer and compound dilution buffer. • 2) Cell culture medium: Ham's F-12K + 10% fetal bovine serum + 600 µg/ml hygromycin B + 1* penicillin-streptomycin. Seeding medium: Ham's F-12K + 10% dialysis serum; Assay buffer: 1 x HBSS + 20 mM HEPES; Cell line: Flp-In-CHO-5HT2A stable pool. • 3) The cells were cultured in the complete medium at 37°C, 5% CO2 to 70%-90% confluency. The cells were digested with TrypLE, seeded to the 384-well assay plate at a density of 1 × 10^4 cells/well, and incubated for 16 to 24 hours (at least overnight). • 4) 20X Component A was thawed to room temperature, diluted to 2X working concentration (containing 5mM Probenecid) with the assay buffer, and placed at room temperature for later use. • 5) The cell culture plate was taken out and left to stand at room temperature for 10 min. […] 10 µl of diluted 5HT was add to each experimental well using FLIPR Tetra, and the values were read.
The calcium signal values were determined by FLIPR. The calculated output for each sampling time point in the experiment was the ratio of the 340/510 nm wavelength signals to 380/510 nm wavelength signals. The maximum minus minimum calculation was derived from the ratio signal curve. The percent inhibition rate and ten-point concentration data were fitted to the parametric nonlinear logistic equation by using GraphPad prism to calculate the IC50 values of the compound.

[1] = Solubility of hydrochloride and free base in different media (37°C, 24 hours, HPLC); format: physicochemical; conditions: thermodynamic from solid
Experimental: The glass bottle was shaken overnight on an electrothermal constant temperature shaking tank, and the temperature was set to 37°C. After 24 hours, the sample solution was filtered with a 0.45 µm mixed water fiber filter membrane, and the subsequent filtrate was taken to test its content by HPLC. HPLC detection methods are described in "Stability Study Conditions". Table 24 Solubility of hydrochloride and free base in different pH buffers

[2] = Pharmacokinetic assay in Balb/c mice (plasma and brain tissue); format: in vivo; conditions: male, mouse, po, p.o. 5 mg/kg; for AUC(0-t): read-out: Area under curve AUC0-t; for Tmax: read-out: Peak time tmax; for Cmax: read-out: Plasma concentration Cmax
Experimental: Balb/c mice were used as test animals. The pharmacokinetic behavior in mouse body (plasma and brain tissue) of the compounds of Examples of the present invention was studied at an oral administration dose of 5 mg/kg.
Compounds of the Examples of the present invention, prepared by the applicant.
Male Balb/c mice (12 mice per group), purchased from Shanghai Jiesijie Laboratory Animal Co., LTD, with Certificate No.: SCXK (Shanghai) 2013-0006 N0.311620400001794.
The test compound was dissolved in 0.5% CMC-Na (1% Tween80) by sonication to formulate a clear solution or homogeneous suspension.
After an overnight fast, male Balb/c mice (12 mice per group) were administered p.o. with the test compound at an administration dose of 5 mg/kg and an administration volume of 10 mL/kg.
0.2 mL of blood was taken from the heart of the mouse before administration and at 1, 2, 4, 8 and 24 hours after administration, and the mice were sacrificed with CO2. The samples were stored in EDTA-K2 tubes, and centrifuged for 6 minutes at 4°C, 6000 rpm to separate the plasma. The plasma samples were stored at -80°C. Whole brain tissue was taken out, weighed, placed in a 2 mL centrifuge tube, and stored at -80°C.
• 1) 160 µL of acetonitrile was added to 40 µL of the plasma sample for precipitation, and then the mixture was centrifuged for 5 to 20 minutes at 3500 × g. • 2) 90 µL of acetonitrile containing internal standard (100 ng/mL) was added to 30 µL of the plasma and brain homogenate sample for precipitation, and then the mixture was centrifuged for 8 minutes at 13000 rpm. • 3) 70 µL of water was added to 70 µL of the treated supernatant and mixed by vortex for 10 minutes. 20 µL of the supernatant was taken to analyze the concentration of the test compound by LC/MS/MS. LC/MS/MS analytical instrument: AB Sciex API 4000 Qtrap.
• Liquid chromatography condition: Shimadzu LC-20AD pump • Chromatographic column: Agilent ZORBAX XDB-C18 (50×2.1 mm, 3.5 µm); Mobile phase: Eluent A was 0.1% formic acid in water, and Eluent B was acetonitrile • Flow rate: 0.4 mL/min • Elution time: 0-4.0 minutes, the eluent is as follows:
The main parameters of pharmacokinetics were calculated by WinNonlin 6.1. Table 17: Experimental results of pharmacokinetic assay in mice

5-HT2A receptor, sequence (P28223 whole entry): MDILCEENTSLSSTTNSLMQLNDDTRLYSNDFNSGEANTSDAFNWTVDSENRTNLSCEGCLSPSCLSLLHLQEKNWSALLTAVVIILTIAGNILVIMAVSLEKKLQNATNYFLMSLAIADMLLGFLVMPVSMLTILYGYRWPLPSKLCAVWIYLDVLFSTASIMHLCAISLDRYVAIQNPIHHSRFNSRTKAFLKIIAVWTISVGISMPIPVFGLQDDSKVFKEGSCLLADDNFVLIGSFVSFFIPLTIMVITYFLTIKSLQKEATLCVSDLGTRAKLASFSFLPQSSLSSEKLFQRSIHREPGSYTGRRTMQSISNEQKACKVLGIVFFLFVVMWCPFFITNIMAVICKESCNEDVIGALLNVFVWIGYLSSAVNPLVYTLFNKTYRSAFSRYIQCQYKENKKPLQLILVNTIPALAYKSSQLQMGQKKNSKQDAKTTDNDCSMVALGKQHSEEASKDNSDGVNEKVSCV
T1 sequence (P35462 whole entry): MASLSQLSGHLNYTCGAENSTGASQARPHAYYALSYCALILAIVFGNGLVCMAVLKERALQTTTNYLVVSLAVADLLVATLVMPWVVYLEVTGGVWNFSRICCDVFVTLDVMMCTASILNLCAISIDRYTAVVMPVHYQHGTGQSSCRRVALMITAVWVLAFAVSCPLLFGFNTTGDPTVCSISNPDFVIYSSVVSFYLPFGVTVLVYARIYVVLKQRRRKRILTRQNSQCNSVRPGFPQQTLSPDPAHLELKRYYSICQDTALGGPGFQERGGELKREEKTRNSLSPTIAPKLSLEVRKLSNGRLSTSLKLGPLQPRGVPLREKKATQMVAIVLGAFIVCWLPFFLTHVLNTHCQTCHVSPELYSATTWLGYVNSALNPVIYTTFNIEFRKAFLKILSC

Row | Compound | EC50 (D3 receptor) | IC50 (5-HT2A receptor) | further results
1 | N#CC1(C(=O)NC2CC(CCN3CCN(c4cccc(Cl)c4Cl)CC3)C2)CC1 (stereo not drawn) [Example 21, 1-Cyano-N-(3-(2-(4-(2,3-dichlorophenyl)piperazin-1-yl)ethyl)cyclobutyl)cyclopropane-1-carboxamide] | 3.3 nM | 33.5 nM | 
2 | COC1CN(C(=O)NC2CC(CCN3CCN(c4cccc(Cl)c4Cl)CC3)C2)C1 (stereo not drawn) [Example 5, N-(3-(2-(4-(2,3-Dichlorophenyl)piperazin-1-yl)ethyl)cyclobutyl)-3-methoxyazetidine-1-carboxamide] | 2.4 nM | 22.1 nM | 
3 | Cc1cc(C(=O)NC2CC(CCN3CCN(c4cccc(Cl)c4Cl)CC3)C2)on1 (stereo not drawn) [Example 14, N-(3-(2-(4-(2,3-Dichlorophenyl)piperazin-1-yl)ethyl)cyclobutyl)-3-methylisoxazole-5-carboxamide] | 1.2 nM | 13.4 nM | 
4 | Cc1ncc(C(=O)NC2CC(CCN3CCN(c4cccc(Cl)c4Cl)CC3)C2)o1 (stereo not drawn) [Example 16, N-(3-(2-(4-(2,3-Dichlorophenyl)piperazin-1-yl)ethyl)cyclobutyl)-2-methyloxazole-5-carboxamide] | 0.7 nM | 5.78 nM | 
5 | Cc1ccc(C(=O)NC2CC(CCN3CCN(c4cccc(Cl)c4Cl)CC3)C2)o1 (stereo not drawn) [Example 1, N-(3-(2-(4-(2,3-Dichlorophenyl)piperazin-1-yl)ethyl)cyclobutyl)-5-methylfuran-2-c arboxamide] | 3.5 nM | 8.08 nM | 
6 | Cc1nc(C(=O)NC2CC(CCN3CCN(c4cccc(Cl)c4Cl)CC3)C2)co1 (stereo not drawn) [Example 18, N-(3-(2-(4-(2,3-Dichlorophenyl)piperazin-1-yl)ethyl)cyclobutyl)-2-methyloxazole-4-carboxamide] | 3.9 nM | 6.4 nM | 
7 | O=C(N[C@H]1C[C@H](CCN2CCN(c3cccc(Cl)c3Cl)CC2)C1)c1ncco1 [crystal form B of free base] |  |  | solubility at 24 h ([1]; aqueous buffer, Buffer pH 3): > 1000 µg/mL; solubility at 24 h ([1]; aqueous buffer, Buffer pH 4): > 1000 µg/mL; solubility at 24 h ([1]; aqueous buffer, Buffer pH 5): > 1000 µg/mL; solubility at 24 h ([1]; aqueous buffer, Buffer pH 6): 388 µg/mL (≈ 917 µM); solubility at 24 h ([1]; aqueous buffer, Buffer pH 7): 44 µg/mL (≈ 104 µM); solubility at 24 h ([1]; aqueous buffer, Buffer pH 8): 2 µg/mL (≈ 4.72 µM); solubility at 24 h ([1]; fassgf or other biorelevant, FaSSCoF): > 1000 µg/mL; solubility at 24 h ([1]; fassgf or other biorelevant, FaSSGF): 154 µg/mL (≈ 364 µM); solubility at 24 h ([1]; fassgf or other biorelevant, FeSSCoF): > 1000 µg/mL; solubility at 24 h ([1]; simulated gastric fluid, Buffer pH 1): > 1000 µg/mL; solubility at 24 h ([1]; simulated gastric fluid, Buffer pH 2): > 1000 µg/mL; solubility at 24 h ([1]; FaSSIF): > 1000 µg/mL; solubility at 24 h ([1]; FeSSIF): > 1000 µg/mL; solubility at 24 h ([1]; water, H2O): 125 µg/mL (≈ 295 µM)
8 | O=C(NC1CC(CCN2CCN(c3cccc(Cl)c3Cl)CC2)C1)c1nccs1 (stereo not drawn) [Example 7, N-(3-(2-(4-(2,3-Dichlorophenyl)piperazin-1-yl)ethyl)cyclobutyl)thiazole-2-carboxamide] | 2.8 nM | 6.44 nM | AUC(0-t) ([2]; Brain): 2080 ng·h/mL; Tmax ([2]; Brain): 60 min; Cmax ([2]; Brain): 569 ng/mL; AUC(0-t) ([2]; Plasma): 503 ng·h/mL; AUC(0-inf) ([2]; Plasma, read-out: Area under curve AUC0-∞): 541 ng·h/mL; MRT ([2]; Plasma, read-out: Average residence time MRT): 2.8 h; half-life ([2]; Plasma, read-out: Half life t1/2 (converted)): 126 min; Tmax ([2]; Plasma): 30 min; Cmax ([2]; Plasma): 254 ng/mL
9 | Cc1cc(CC(=O)NC2CC(CCN3CCN(c4cccc(Cl)c4Cl)CC3)C2)on1 (stereo not drawn) [Example 10, N-(3-(2-(4-(2,3-Dichlorophenyl)piperazin-1-yl)ethyl)cyclobutyl)-2-(3-methylisoxazol-5-yl)acetamide] | 1.2 nM | 8.9 nM | 
10 | O=C(NC1CC(CCN2CCN(c3cccc(Cl)c3Cl)CC2)C1)c1ccno1 (stereo not drawn) [Example 15, N-(3-(2-(4-(2,3-Dichlorophenyl)piperazin-1-yl)ethyl)cyclobutyl)isoxazole-5-carboxamide] | 1.7 nM | 8.06 nM | 
11 | O=C(NC1CC(CCN2CCN(c3cccc(Cl)c3Cl)CC2)C1)c1cccnc1 (stereo not drawn) [Example 3, N-(3-(2-(4-(2,3-Dichlorophenyl)piperazin-1-yl)ethyl)cyclobutyl)nicotinamide] | 1.2 nM | 48 nM | 
12 | Cc1cnoc1C(=O)NC1CC(CCN2CCN(c3cccc(Cl)c3Cl)CC2)C1 (stereo not drawn) [Example 13, N-(3-(2-(4-(2,3-Dichlorophenyl)piperazin-1-yl)ethyl)cyclobutyl)-4-methylisoxazole-5-carboxamide] | 3.4 nM | 10.9 nM | 
13 | O=C(NC1CC(CCN2CCN(c3cccc(Cl)c3Cl)CC2)C1)c1cccc2ncccc12 (stereo not drawn) [Example 19, N-(3-(2-(4-(2,3-Dichlorophenyl)piperazin-1-yl)ethyl)cyclobutyl)quinoline-5-carbox amide] | 1 nM | 7.37 nM | 
14 | COCC(=O)NC1CC(CCN2CCN(c3cccc(Cl)c3Cl)CC2)C1 (stereo not drawn) [Example 2, N-(3-(2-(4-(2,3-Dichlorophenyl)piperazin-1-yl)ethyl)cyclobutyl)-2-methoxyacetamide] | 2.2 nM | 16.7 nM | 
15 | O=C(NC1CC(CCN2CCN(c3cccc(Cl)c3Cl)CC2)C1)c1ccon1 (stereo not drawn) [Example 17, N-(3-(2-(4-(2,3-Dichlorophenyl)piperazin-1-yl)ethyl)cyclobutyl)isoxazole-3-carboxamide] | 3.1 nM | 8.92 nM | 
